Tested on: patient with Parkinson's disease, positive for Malassezia infection
Experiment: Example 3: Parkinson's patient positive for Malassezia infection given intravenous amphotericin B deoxycholate plus intranasal saline irrigation
Assay type: in vivo, human
Settings: i.v. 1.0 mg/kg/day for 3 weeks in combination with intranasal aqueous saline solution, follow-up 6 months after the course
Method: A patient is clinically evaluated by a physician for deterioration of health because of their progression of symptoms of Parkinson's disease which include tremor, speech dysfunction, aberrant personality changes, abulia, and difficulties with mentation. Patient has no overt symptoms of Malassezia infection. […] Patient is treated with an intravenous administration of a commercially available amphotericin formulation of amphotericin B deoxycholate at 1.0 mg/kg/day in combination with a twice daily treatment regimen of intranasal aqueous saline solution. The solution comprises a mixture of 1 teaspoon of baking soda, 1.5 teaspoons of salt, and 1 quart sterilized distilled water. The solution is administered intranasally using a pulsating irrigation device. The pulsating irrigation device sends a gentle pulse of the solution into the nose via a nasal irrigation tip that can reach into and contact with the upper nasal passages. The amphotericin B treatment regimen is discontinued after 3 weeks. The total amount of amphotericin B administered to the patient over the course of treatment is about 1.8 grams. The nasal wash is continued to be administered to the patient indefinitely on a once daily basis. Routine follow-up is conducted by the physician 6 months after completion of the amphotericin B treatment course.

amphotericin B deoxycholate
caregiver report of symptoms: improved mood, improved affect, decreased fatigue, decreased abulia, and improved mentation | progression of Parkinson's disease measured with the MDS-UPDRS (person): halted
